The target in assay [1] is T1, IL-23R (Homo sapiens, UniProt Q5VWK5).
T1 construct: HEK293 cells containing IL-23R, IL-12Rβ1 and a firefly luciferase reporter gene driven by a STAT-inducible promoter (Promega); host or cells: HEK293
T1 sequence (Q5VWK5 24-629): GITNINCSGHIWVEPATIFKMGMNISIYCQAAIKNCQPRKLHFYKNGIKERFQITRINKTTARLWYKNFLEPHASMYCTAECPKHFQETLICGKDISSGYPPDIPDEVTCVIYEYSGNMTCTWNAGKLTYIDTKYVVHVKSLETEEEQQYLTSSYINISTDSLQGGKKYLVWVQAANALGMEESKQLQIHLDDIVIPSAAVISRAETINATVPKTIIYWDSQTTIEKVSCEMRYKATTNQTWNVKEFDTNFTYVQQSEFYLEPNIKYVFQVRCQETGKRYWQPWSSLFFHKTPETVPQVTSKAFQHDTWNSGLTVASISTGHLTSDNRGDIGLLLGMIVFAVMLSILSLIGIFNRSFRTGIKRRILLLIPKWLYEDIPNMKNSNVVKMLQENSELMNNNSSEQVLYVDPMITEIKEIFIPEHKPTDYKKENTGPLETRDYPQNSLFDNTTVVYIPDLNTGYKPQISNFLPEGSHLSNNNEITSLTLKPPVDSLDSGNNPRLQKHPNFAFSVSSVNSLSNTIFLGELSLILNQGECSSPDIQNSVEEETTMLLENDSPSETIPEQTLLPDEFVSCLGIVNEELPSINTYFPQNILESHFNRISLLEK
The assay can be described thus: IL23R Reporter Assay. In kind it is cell-based. To be noted: HEK293 cells containing IL-23R, IL-12Rβ1 and STAT-inducible firefly luciferase reporter; 10 ng/mL IL-23 (EC90); 5 h. Summed up: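 HEK293 cells carrying IL-23R, IL-12Rβ1 and a STAT-driven firefly luciferase reporter (4000 cells/well) received compound, then 10 ng/mL IL-23 solution (EC90), and were incubated for 5 h at 37° C. BioGlo luminescence was normalised to IL-23 alone (0%) and 30 μM control inhibitor (100%). IC50 came from a 4-parameter Hill fit.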
On the technique in general: In a reporter assay the amount or activity of a reporter protein is the signal.

Assay [2] concerns IL-23-stimulated phosphorylated STAT3 in peripheral blood mononuclear cells (PBMCs). Description: PBMC pSTAT3 Assay. Type of assay: cell-based. Conditions: PBMCs from healthy donors; 30 min preincubation with peptide; IL-23 5 ng/mL for 30 min; phospho-STAT3 by MSD. Put shortly: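 Healthy-donor PBMCs expanded 4 days on anti-CD3 with 100 ng/mL IL-1β, starved ~4 h in RPMI-0.1% BSA, preincubated 30 min with peptide, then stimulated 30 min at 37 °C with 5 ng/mL IL-23. Lysate pSTAT3 measured by MSD phospho-STAT panel; IC50 derived.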

The term pIC50 denotes the IC50 on a negative log10 scale, so that one unit is a factor of ten. Low readings indicate a high IC50, high ones a low IC50.

pIC50: −log10 of the molar value. *1 amine or outer side, *2 acyl side, *3 side chain or, on linkers, in order; H or OH if unused. Where a SMILES comes first, the peptide text is derived from it. Bridges are numbered along the chain shown (N, C = ends). Side-chain parts run from the residue outwards. [ ]: non-standard residue; d: D form. The star is where a group is joined. ξ: configuration not given here. Trp(7-Me) = Cc1cccc2c(C[C@H](N)C(=O)O)c[nH]c12; d(γGlu) = O=C(O)[C@@H](CCC(=O)[*:2])N[*:1]; C18 diacid = O=C(O)CCCCCCCCCCCCCCCCC(=O)*; γGlu = O=C(O)[C@H](CCC(=O)[*:2])N[*:1]; 2Nal = N[C@@H](Cc1ccc2ccccc2c1)C(=O)O; AEF = NCCOc1ccc(C[C@H](N)C(=O)O)cc1; X2 = C[N+](C)(C)C[C@@H](CC(=O)O)N*; 3Pal = N[C@@H](Cc1cccnc1)C(=O)O; NMeK = CN[C@@H](CCCCN)C(=O)O; Pen = CC(C)(S)[C@H](N)C(=O)O; Suc = O=C(CCC(=O)[*:2])[*:1]; Thp = NC1(C(=O)O)CCOCC1; AEEA = NCCOCCOCC(=O)O; ξK = NCCCCC(N)C(=O)O; Sar = CNCC(=O)O

`CC(=O)NCCCC[C@@H]1NC(=O)[C@H](Cc2c[nH]c3c(C)cccc23)NC(=O)[C@H]([C@@H](C)O)NC(=O)[C@H](CC(N)=O)NC(=O)[C@@H](NC(C)=O)C(C)(C)SSC(C)(C)[C@@H](C(=O)N[C@@H](Cc2ccc(OCCN)cc2)C(=O)N[C@@H](Cc2ccc3ccccc3c2)C(=O)NC2(C(=O)N[C@@H](CCCCNC(=O)CCC(=O)N[C@H](CC(=O)O)C[N+](C)(C)C)C(=O)N[C@@H](CC(N)=O)C(=O)N[C@@H](Cc3cccnc3)C(=O)N(C)[C@@H](CCCCNC(=O)COCCOCCNC(=O)COCCOCCNC(=O)CC[C@H](NC(=O)CCCCCCCCCCCCCCCCC(=O)O)C(=O)O)C(N)=O)CCOCC2)NC1=O` [compound 28, MeCO-Pen(3)-N-T-7MeW-K(Ac)-Pen(3)-AEF-2Nal-THP-K(d)-N-3Pya-NMeK(PEG2PEG2gEC18OH)-CONH2]: the figures for the pIC50 in assay [1] and in assay [2] were 6.30 to 7.30 and more than 9.30, respectively.
In the same order, the values of `CC(=O)NCCCC[C@@H]1NC(=O)[C@H](Cc2c[nH]c3c(C)cccc23)NC(=O)[C@H]([C@@H](C)O)NC(=O)[C@H](CCCCNC(=O)CCC(=O)N[C@H](CC(=O)O)C[N+](C)(C)C)NC(=O)[C@@H](NC(=O)[C@H](CCCNC(=N)N)NC(C)=O)C(C)(C)SSC(C)(C)[C@@H](C(=O)N[C@@H](Cc2ccc(OCCN)cc2)C(=O)N[C@@H](Cc2ccc3ccccc3c2)C(=O)NC2(C(=O)N[C@@H](CCC(=O)O)C(=O)N[C@@H](CC(N)=O)C(=O)N[C@@H](Cc3cccnc3)C(=O)N(C)[C@@H](CCCCNC(=O)COCCOCCNC(=O)COCCOCCNC(=O)CC[C@H](NC(=O)CCCCCCCCCCCCCCCCC(=O)O)C(=O)O)C(N)=O)CCOCC2)NC1=O` [compound 30, MeCO-r-Pen(3)-K(d)-T-7MeW-K(Ac)-Pen(3)-AEF-2Nal-THP-E-N-3Pya-NMeK(PEG2PEG2gEC18OH)-CONH2] (Ac-R[Pen]K([Suc-X2])T[Trp(7-Me)]K(Ac)[Pen][AEF][2Nal][Thp]EN[3Pal][NMeK]([AEEA-AEEA-γGlu-C18 diacid])-NH2; disulfide 2-7) are more than 7.30 and more than 9.30.
In the same order, the values of `CC(=O)NCCCC[C@@H]1NC(=O)[C@H](Cc2c[nH]c3c(C)cccc23)NC(=O)[C@H]([C@@H](C)O)NC(=O)[C@H](CC(N)=O)NC(=O)[C@@H](NC(=O)[C@@H](CCCNC(=N)N)NC(=O)CCC(=O)N[C@H](CC(=O)O)C[N+](C)(C)C)C(C)(C)SSC(C)(C)[C@@H](C(=O)N[C@@H](Cc2ccc(OCCN)cc2)C(=O)N[C@@H](Cc2ccc3ccccc3c2)C(=O)NC2(C(=O)N[C@@H](CCC(=O)O)C(=O)N[C@@H](CC(N)=O)C(=O)N[C@@H](Cc3cccnc3)C(=O)N(C)[C@@H](CCCCNC(=O)COCCOCCNC(=O)COCCOCCNC(=O)CC[C@H](NC(=O)CCCCCCCCCCCCCCCCC(=O)O)C(=O)O)C(N)=O)CCOCC2)NC1=O` [compound 31, succiniccarn-r-Pen(3)-N-T-7MeW-K(Ac)-Pen(3)-AEF-2Nal-THP-E-N-3Pya-NMeK(PEG2PEG2gEC18OH)-CONH2] ({X2-Suc}-[dR][Pen]NT[Trp(7-Me)]K(Ac)[Pen][AEF][2Nal][Thp]EN[3Pal][NMeK]([AEEA-AEEA-γGlu-C18 diacid])-NH2; disulfide 2-7) are 6.30 to 7.30 and more than 9.30.
In the same order, the values of `CC(=O)NCCCC[C@@H]1NC(=O)[C@H](Cc2c[nH]c3c(C)cccc23)NC(=O)[C@H]([C@@H](C)O)NC(=O)[C@H](CC(N)=O)NC(=O)[C@@H](NC(=O)[C@H](CCCCNC(=O)COCCOCCNC(=O)COCCOCCNC(=O)CC[C@H](NC(=O)CCCCCCCCCCCCCCCCC(=O)O)C(=O)O)CCCNC(=N)N)C(C)(C)SSC(C)(C)[C@@H](C(=O)N[C@@H](Cc2ccc(OCCN)cc2)C(=O)N[C@@H](Cc2ccc3ccccc3c2)C(=O)NC2(C(=O)N[C@@H](CCCCNC(=O)CCC(=O)N[C@H](CC(=O)O)C[N+](C)(C)C)C(=O)N[C@@H](CC(N)=O)C(=O)N[C@@H](Cc3cccnc3)C(=O)N(C)CC(N)=O)CCOCC2)NC1=O` [compound 32, HOC18gEPEG2PEG2CO-r-Pen(3)-N-T-7MeW-K(Ac)-Pen(3)-AEF(d)-2Nal-THP-E-N-3Pya-Sar-CONH2] are 6.30 to 7.30 and more than 9.30.
For the compound `CC(=O)NCCCC[C@@H]1NC(=O)[C@H](Cc2c[nH]c3c(C)cccc23)NC(=O)[C@H]([C@@H](C)O)NC(=O)[C@H](CC(N)=O)NC(=O)[C@@H](NC(=O)[C@@H](CCCCNC(=O)COCCOCCNC(=O)COCCOCCNC(=O)CC[C@H](NC(=O)CCCCCCCCCCCCCCCCC(=O)O)C(=O)O)NC(C)=O)C(C)(C)SSC(C)(C)[C@@H](C(=O)N[C@@H](Cc2ccc(OCCN)cc2)C(=O)N[C@@H](Cc2ccc3ccccc3c2)C(=O)NC2(C(=O)N[C@@H](CCCCNC(=O)CCC(=O)N[C@H](CC(=O)O)C[N+](C)(C)C)C(=O)N[C@@H](CC(N)=O)C(=O)N[C@@H](Cc3cccnc3)C(=O)N(C)CC(N)=O)CCOCC2)NC1=O` [compound 33, MeCO-k(PEG2PEG2gEC18OH)-Pen(3)-N-T-7MeW-K(Ac)-Pen(3)-AEF-2Nal-THP-K(d)-N-3Pya-Sar-CONH2] (Ac-[dK]([AEEA-AEEA-γGlu-C18 diacid])[Pen]NT[Trp(7-Me)]K(Ac)[Pen][AEF][2Nal][Thp]K([Suc-X2])N[3Pal][Sar]-NH2; disulfide 2-7), the pIC50 was more than 7.30 in assay [1] and more than 9.30 in assay [2].
Taken in the same sequence, the figures for `CC(=O)NC(CCCCNC(=O)COCCOCCNC(=O)COCCOCCNC(=O)CC[C@@H](NC(=O)CCCCCCCCCCCCCCCCC(=O)O)C(=O)O)C(=O)N[C@@H]1C(=O)N[C@@H](CC(N)=O)C(=O)N[C@@H]([C@@H](C)O)C(=O)N[C@@H](Cc2c[nH]c3c(C)cccc23)C(=O)N[C@@H](CCCCNC(=O)CCC(=O)N[C@H](CC(=O)O)C[N+](C)(C)C)C(=O)N[C@H](C(=O)N[C@@H](Cc2ccc(OCCN)cc2)C(=O)N[C@@H](Cc2ccc3ccccc3c2)C(=O)NC2(C(=O)N[C@@H](CCC(=O)O)C(=O)N[C@@H](CC(N)=O)C(=O)N[C@@H](Cc3cccnc3)C(=O)N(C)CC(N)=O)CCOCC2)C(C)(C)SSC1(C)C` (stereo partly drawn) [compound 34, MeCO-k(PEG2PEG2gEC18OH)-Pen(3)-N-T-7MeW-K(d)-Pen(3)-AEF-2Nal-THP-E-N-3Pya-Sar-CONH2] (Ac-[ξK]([AEEA-AEEA-d(γGlu)-C18 diacid])[Pen]NT[Trp(7-Me)]K([Suc-X2])[Pen][AEF][2Nal][Thp]EN[3Pal][Sar]-NH2; disulfide 2-7) were more than 7.30 and more than 9.30.
Taken in the same sequence, the figures for `CC(=O)N[C@H](CCCNC(=N)N)C(=O)N[C@@H]1C(=O)N[C@@H](CC(N)=O)C(=O)N[C@@H]([C@@H](C)O)C(=O)N[C@@H](Cc2c[nH]c3c(C)cccc23)C(=O)N[C@@H](CCCCNC(=O)COCCOCCNC(=O)COCCOCCNC(=O)CC[C@H](NC(=O)CCCCCCCCCCCCCCCCC(=O)O)C(=O)O)C(=O)N[C@H](C(=O)N[C@@H](Cc2ccc(OCCNC(=O)CCC(=O)N[C@H](CC(=O)O)C[N+](C)(C)C)cc2)C(=O)N[C@@H](Cc2ccc3ccccc3c2)C(=O)NC2(C(=O)N[C@@H](CCC(=O)O)C(=O)N[C@@H](CC(N)=O)C(=O)N[C@@H](Cc3cccnc3)C(=O)N(C)CC(N)=O)CCOCC2)C(C)(C)SSC1(C)C` [compound 36, MeCO-r-Pen(3)-N-T-7MeW-K(PEG2PEG2gEC18OH)-Pen(3)-AEF(d)-2Nal-THP-E-N-3Pya-Sar-CONH2] (Ac-[dR][Pen]NT[Trp(7-Me)]K([AEEA-AEEA-γGlu-C18 diacid])[Pen][AEF]([Suc-X2])[2Nal][Thp]EN[3Pal][Sar]-NH2; disulfide 2-7) were 6.30 to 7.30 and more than 9.30.

These data come from patent publication US20260250320A1, “LIPIDATED PEPTIDE INHIBITORS OF INTERLEUKIN-23 RECEPTOR” (Janssen Pharmaceutica NV, priority 2023, published 2026).
